Source: ChEMBL document CHEMBL1909588, “Synthesis and in vitro antitubercular evaluation of novel sansanmycin derivatives” (2011)
≈ marks a conversion by molar mass, not a printed value.

Test system: Mycobacterium tuberculosis
Test: Antitubercular activity against Mycobacterium tuberculosis H37Rv […] by microplate alamar blue assay
Format: functional

Compound	MIC [µg/mL]
CSCCC(NC(=O)NC(Cc1c[nH]c2ccccc12)C(=O)O)C(=O)NC(C(=O)N/C=C1\C[C@@H](O)[C@H](n2ccc(=O)[nH]c2=O)O1)C(C)N(C)C(=O)C(Cc1cccc(O)c1)NS(=O)(=O)c1ccccc1 (stereo not given in full)	> 16
NNC(=O)c1ccncc1 [ISONIAZID]	0.05 (≈ 0.365 µM)
CSCCC(NC(=O)NC(Cc1c[nH]c2ccccc12)C(=O)O)C(=O)NC(C(=O)N/C=C1\C[C@@H](O)[C@H](n2ccc(=O)[nH]c2=O)O1)C(C)N(C)C(=O)C(Cc1cccc(O)c1)NC(=O)OCc1ccccc1 (stereo not given in full)	> 16
CCCCCNC(Cc1cccc(O)c1)C(=O)N(C)C(C)C(NC(=O)C(CCSC)NC(=O)NC(Cc1c[nH]c2ccccc12)C(=O)O)C(=O)N/C=C1\C[C@@H](O)[C@H](n2ccc(=O)[nH]c2=O)O1 (stereo not given in full)	> 16
CSCCC(NC(=O)NC(Cc1c[nH]c2ccccc12)C(=O)O)C(=O)NC(C(=O)N/C=C1\C[C@@H](O)[C@H](n2ccc(=O)[nH]c2=O)O1)C(C)N(C)C(=O)C(Cc1cccc(O)c1)NS(C)(=O)=O (stereo not given in full)	> 16
CSCCC(NC(=O)NC(Cc1c[nH]c2ccccc12)C(=O)O)C(=O)NC(C(=O)N/C=C1\C[C@@H](OC(C)=O)[C@H](n2ccc(=O)[nH]c2=O)O1)C(C)N(C)C(=O)C(Cc1cccc(OC(C)=O)c1)NC(C)=O (stereo not given in full)	> 16
CSCCC(NC(=O)NC(Cc1c[nH]c2ccccc12)C(=O)O)C(=O)NC(C(=O)N/C=C1\C[C@@H](O)[C@H](n2ccc(=O)[nH]c2=O)O1)C(C)N(C)C(=O)C(Cc1cccc(O)c1)NC(=O)CCl (stereo not given in full)	> 16
CSCCC(NC(=O)NC(Cc1c[nH]c2ccccc12)C(=O)O)C(=O)NC(C(=O)N/C=C1\C[C@@H](O)[C@H](n2ccc(=O)[nH]c2=O)O1)C(C)N(C)C(=O)C(Cc1cccc(O)c1)N(C)C (stereo not given in full)	16 (≈ 17.9 µM)
CCOC(=O)NC(Cc1cccc(O)c1)C(=O)N(C)C(C)C(NC(=O)C(CCSC)NC(=O)NC(Cc1c[nH]c2ccccc12)C(=O)O)C(=O)N/C=C1\C[C@@H](O)[C@H](n2ccc(=O)[nH]c2=O)O1 (stereo not given in full)	> 16
CCCNC(Cc1cccc(O)c1)C(=O)N(C)C(C)C(NC(=O)C(CCSC)NC(=O)NC(Cc1c[nH]c2ccccc12)C(=O)O)C(=O)N/C=C1\C[C@@H](O)[C@H](n2ccc(=O)[nH]c2=O)O1 (stereo not given in full)	> 16
COc1ccc(S(=O)(=O)NC(Cc2cccc(O)c2)C(=O)N(C)C(C)C(NC(=O)C(CCSC)NC(=O)NC(Cc2c[nH]c3ccccc23)C(=O)O)C(=O)N/C=C2\C[C@@H](O)[C@H](n3ccc(=O)[nH]c3=O)O2)cc1 (stereo not given in full)	> 16
CSCCC(NC(=O)NC(Cc1c[nH]c2ccccc12)C(=O)O)C(=O)NC(C(=O)N/C=C1\C[C@@H](O)[C@H](n2ccc(=O)[nH]c2=O)O1)C(C)N(C)C(=O)C(Cc1cccc(O)c1)NC(=O)c1ccccc1 (stereo not given in full)	> 16
CCCCNC(Cc1cccc(O)c1)C(=O)N(C)C(C)C(NC(=O)C(CCSC)NC(=O)NC(Cc1c[nH]c2ccccc12)C(=O)O)C(=O)N/C=C1\C[C@@H](O)[C@H](n2ccc(=O)[nH]c2=O)O1 (stereo not given in full)	> 16
CSCCC(NC(=O)NC(Cc1c[nH]c2ccccc12)C(=O)O)C(=O)NC(C(=O)N/C=C1\C[C@@H](O)[C@H](n2ccc(=O)[nH]c2=O)O1)C(C)N(C)C(=O)C(N)Cc1cccc(O)c1 (stereo not given in full) [SANSANMYCIN A]	16 (≈ 18.5 µM)
COC(=O)NC(Cc1cccc(O)c1)C(=O)N(C)C(C)C(NC(=O)C(CCSC)NC(=O)NC(Cc1c[nH]c2ccccc12)C(=O)O)C(=O)N/C=C1\C[C@@H](O)[C@H](n2ccc(=O)[nH]c2=O)O1 (stereo not given in full)	> 16
CO[C@H]1/C=C/O[C@@]2(C)Oc3c(C)c(O)c4c(O)c(c(/C=N/N5CCN(C)CC5)c(O)c4c3C2=O)NC(=O)/C(C)=C\C=C\[C@H](C)[C@H](O)[C@@H](C)[C@@H](O)[C@@H](C)[C@H](OC(C)=O)[C@@H]1C [RIFAMPIN]	0.12 (≈ 0.146 µM)
CCNC(Cc1cccc(O)c1)C(=O)N(C)C(C)C(NC(=O)C(CCSC)NC(=O)NC(Cc1c[nH]c2ccccc12)C(=O)O)C(=O)N/C=C1\C[C@@H](O)[C@H](n2ccc(=O)[nH]c2=O)O1 (stereo not given in full)	> 16
CSCCC(NC(=O)NC(Cc1c[nH]c2ccccc12)C(=O)O)C(=O)NC(C(=O)N/C=C1\C[C@@H](O)[C@H](n2ccc(=O)[nH]c2=O)O1)C(C)N(C)C(=O)C(Cc1cccc(O)c1)NS(=O)(=O)c1ccc(C)cc1 (stereo not given in full)	> 16
CSCCC(NC(=O)NC(Cc1c[nH]c2ccccc12)C(=O)O)C(=O)NC(C(=O)N/C=C1\C[C@@H](O)[C@H](n2ccc(=O)[nH]c2=O)O1)C(C)N(C)C(=O)C(Cc1cccc(O)c1)NC(C)C (stereo not given in full)	8 (≈ 8.83 µM)
CSCCC(NC(=O)NC(Cc1c[nH]c2ccccc12)C(=O)O)C(=O)NC(C(=O)N/C=C1\C[C@@H](O)[C@H](n2ccc(=O)[nH]c2=O)O1)C(C)N(C)C(=O)C(Cc1cccc(OC(C)=O)c1)NC(C)=O (stereo not given in full)	> 16
